Data taken from US9663496B2, “AMPK-activating heterocyclic compounds and methods for using the same” (Rigel Pharmaceuticals, Inc., priority 2010, dated 2017).
pEC50: −log10 of the molar value.

These compounds were tested against AMPK (assay: AMPK activation, enzyme-linked immunosorbent assay). Conditions: EC50 for AMPK activation, ELISA.
Assay type: biochemical
Method in brief: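 Activator screen performed per well-known kit methods.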

| SMILES | pEC50 |
| --- | --- |
| N#Cc1ccc(OC2CCN(C(=O)c3ccc(C(=O)NC4CCN(c5ccc(F)cc5)CC4)cn3)CC2)cc1 [Compound 422, 6-(4-(4-cyanophenoxy)piperidine-1-carbonyl)-N-(1-(4-fluorophenyl)piperidin-4-yl)nicotinamide] | 5.30 to 6.00 |
| CS(=O)(=O)c1ccc(OC2CCN(C(=O)c3ccc(C(=O)NC4CCN(Cc5cccc(OC(F)(F)F)c5)CC4)cn3)CC2)cc1 [Compound 239, 6-(4-(4-(methylsulfonyl)phenoxy)piperidine-1-carbonyl)-N-(1-(3-(trifluoromethoxy)benzyl)piperidin-4-yl)nicotinamide] | 5.30 to 6.00 |
| CC(=O)c1ccc(Oc2ccc(NC(=O)c3ccc(C(=O)N4CCC(S(=O)(=O)c5ccc(F)cc5)CC4)nc3)cn2)cc1 [Compound 473, N-(6-(4-acetylphenoxy)pyridin-3-yl)-6-(4-(4-fluorophenylsulfonyl)piperidine-1-carbonyl)nicotinamide] | 5.30 to 6.00 |
| COc1ccc(C(=O)C2CCN(C(=O)c3ncc(C(=O)NC4CCN(Cc5ccc(C#N)cc5)CC4)cc3CCCNC(=O)OC(C)(C)C)CC2)cc1 [Compound 416, tert-butyl 3-(5-(1-(4-cyanobenzyl)piperidin-4-ylcarbamoyl)-2-(4-(4-methoxybenzoyl)piperidine-1-carbonyl)pyridin-3-yl)propylcarbamate] | 5.30 to 6.00 |
| COc1ccc(C(=O)C2CCN(C(=O)c3ccc(C(=O)Nc4ccc(Oc5ccc(C(=O)N(C)C)cc5)nc4)cn3)CC2)cc1 [Compound 480, N-(6-(4-(dimethylcarbamoyl)phenoxy)pyridin-3-yl)-6-(4-(4-methoxybenzoyl)piperidine-1-carbonyl)nicotinamide] | > 6.30 |
| N#Cc1ccc(OC2CCN(C(=O)c3ccc(C(=O)NC4CCN(Cc5ccc(N6CCCC6)cc5)CC4)nc3)CC2)cc1 [Compound 197, 5-(4-(4-cyanophenoxy)piperidine-1-carbonyl)-N-(1-(4-(pyrrolidin-1-yl)benzyl)piperidin-4-yl)picolinamide] | > 6.30 |
| COc1ccc(C(=O)C2CCN(C(=O)c3ccc(C(=O)Nc4ccc(Oc5ccc(C#N)cc5)cn4)cn3)CC2)cc1 [Compound 468, N-(5-(4-cyanophenoxy)pyridin-2-yl)-6-(4-(4-methoxybenzoyl)piperidine-1-carbonyl)nicotinamide] | > 6.30 |
| COc1ccc(CN2CCC(NC(=O)c3ccc(C(=O)N4CCC(C(=O)c5ccc(F)cc5)CC4)cn3)CC2)cc1 [Compound 160, 5-(4-(4-fluorobenzoyl)piperidine-1-carbonyl)-N-(1-(4-methoxybenzyl)piperidin-4-yl)picolinamide] | > 6.30 |
| N#Cc1ccc(CN2CCC(NC(=O)c3ccc(C(=O)N4CCN(Cc5ccncc5)CC4)cn3)CC2)cc1 [Compound 103, N-(1-(4-cyanobenzyl)piperidin-4-yl)-5-(4-(pyridin-4-ylmethyl)piperazine-1-carbonyl)picolinamide] | > 6.30 |
| COc1ccc(C(=O)C2CCN(C(=O)c3ccc(C(=O)N[C@H]4CC[C@@H](Oc5ccc(C(F)(F)F)cc5)CC4)nc3)CC2)cc1 [Compound 192, 5-(4-(4-methoxybenzoyl)piperidine-1-carbonyl)-N-((cis)-4-(4-(trifluoromethyl)phenoxy)cyclohexyl) picolinamide] | > 6.30 |

Second part, the compound after the results:

| pEC50 | SMILES |
| --- | --- |
| > 6.30 | O=C(N[C@H]1CC[C@@H](Oc2ccc(F)cc2)CC1)c1ccc(C(=O)N2CCC(C(=O)c3ccc(F)cc3)CC2)cn1 [Compound 304, 5-(4-(4-fluorobenzoyl)piperidine-1-carbonyl)-N-((cis)-4-(4-fluorophenoxy)cyclohexyl)picolinamide] |
| > 6.30 | O=C(NC1CCN(Cc2ccc(OC(F)(F)F)cc2)CC1)c1ccc(C(=O)N2CCC(S(=O)(=O)c3ccc(F)cc3)CC2)nc1 [Compound 470, 6-(4-(4-fluorophenylsulfonyl)piperidine-1-carbonyl)-N-(1-(4-(trifluoromethoxy)benzyl)piperidin-4-yl)nicotinamide] |
| > 6.30 | N#Cc1ccc(CN2CCC(NC(=O)c3ccc(N4CCC(C(=O)c5ccc(Cl)cc5)CC4)cn3)CC2)cc1 [Compound 266, 5-(4-(4-chlorobenzoyl)piperidin-1-yl)-N-(1-(4-cyanobenzyl)piperidin-4-yl)picolinamide] |
| > 6.30 | O=C(NC1CCN(Cc2ccc(F)cc2)CC1)c1ccc(C(=O)N2CCC(Oc3ccc(C(F)(F)F)cc3)CC2)cn1 [Compound 179, N-(1-(4-fluorobenzyl)piperidin-4-yl)-5-(4-(4-(trifluoromethyl)phenoxy)piperidine-1-carbonyl)picolinamide] |
| > 6.30 | O=C(NC1CCN(Cc2ccccc2)CC1)c1ccc(C(=O)N2CCN(Cc3ccccc3)CC2)cn1 [Compound 72, 5-(4-benzylpiperazine-1-carbonyl)-N-(1-benzylpiperidin-4-yl)picolinamide] |
| > 6.30 | COc1ccc(OC2CCN(C(=O)c3ccc(C(=O)NC4CCN(Cc5ccc(N6CCCC6)cc5)CC4)nc3)CC2)cc1 [Compound 195, 5-(4-(4-methoxyphenoxy)piperidine-1-carbonyl)-N-(1-(4-(pyrrolidin-1-yl)benzyl)piperidin-4-yl)picolinamide] |
| > 6.30 | O=C(NC1CCN(Cc2ccc(F)cc2)CC1)c1ccc(C(=O)N2CCC(Oc3ccc(F)cc3)CC2)cn1 [Compound 180, N-(1-(4-fluorobenzyl)piperidin-4-yl)-5-(4-(4-fluorophenoxy)piperidine-1-carbonyl)picolinamide] |
| > 6.30 | COc1ccc(C(=O)C2CCN(c3ccc(C(=O)NC4CCN(Cc5ccc(C#N)cc5)CC4)nn3)CC2)cc1 [Compound 362, N-(1-(4-cyanobenzyl)piperidin-4-yl)-6-(4-(4-methoxybenzoyl)piperidin-1-yl)pyridazine-3-carboxamide] |
| > 6.30 | N#Cc1ccc(CN2CCC(NC(=O)c3ccc(C(=O)N4CCC(C(=O)c5cccs5)CC4)cn3)CC2)cc1 [Compound 419, N-(1-(4-cyanobenzyl)piperidin-4-yl)-5-(4-(thiophene-2-carbonyl)piperidine-1-carbonyl)picolinamide] |
| > 6.30 | N#Cc1ccc(CN2CCC(NC(=O)c3ccc(C(=O)N4CCC(C(=O)c5ccc(Cl)cc5)CC4)cn3)CC2)cc1 [Compound 154, 5-(4-(4-chlorobenzoyl)piperidine-1-carbonyl)-N-(1-(4-cyanobenzyl)piperidin-4-yl)picolinamide] |
| > 6.30 | O=C(NC1CCN(Cc2cc(F)cc(F)c2)CC1)c1ccc(C(=O)N2CCC(C(=O)c3ccc(F)cc3)CC2)cn1 [Compound 288, N-(1-(3,5-difluorobenzyl)piperidin-4-yl)-5-(4-(4-fluorobenzoyl)piperidine-1-carbonyl)picolinamide] |
| > 6.30 | COc1ccc(N2CCC(Nc3ccc(C(=O)NC4CCN(Cc5ccc(C#N)cc5)CC4)nc3)CC2)cc1 [Compound 275, N-(1-(4-cyanobenzyl)piperidin-4-yl)-5-(1-(4-methoxyphenyl)piperidin-4-ylamino)picolinamide] |
| > 6.30 | CS(=O)(=O)c1ccc(OC2CCN(C(=O)c3ccc(C(=O)NC4CCN(Cc5cc(F)cc(F)c5)CC4)nc3)CC2)cc1 [Compound 203, N-(1-(3,5-difluorobenzyl)piperidin-4-yl)-5-(4-(4-(methylsulfonyl)phenoxy)piperidine-1-carbonyl)picolinamide] |
| > 6.30 | O=C(NC1CCN(Cc2ccc(N3CCCC3)cc2)CC1)c1ccc(C(=O)N2CCC(Oc3ccc(F)cc3)CC2)cn1 [Compound 196, 5-(4-(4-fluorophenoxy)piperidine-1-carbonyl)-N-(1-(4-(pyrrolidin-1-yl)benzyl)piperidin-4-yl)picolinamide] |
